Data: publication PMC12114274, “Synthesis of 3-Carboxy-6-sulfamoylquinolones and Mefloquine-Based Compounds as Panx1 Blockers: Molecular Docking, Electrophysiological and Cell Culture Studies” (Molecules, 2025)

Columns and labels:
Type in all cases: cell-based
[1] = biological target: T1, mPanx1 (Mus musculus, UniProt Q9JIP4); experiment: whole-cell patch clamp, CHO cells transfected with mPanx1, dose-response (IC50 low micromolar, number not given); settings: read-out: I% ^a
T1 construct: gene Panx1

[2] = biological target: T1, mPanx1; experiment: whole-cell patch clamp, CHO cells transfected with mPanx1, single dose […]; settings: read-out: I% ^a
[3] = biological target: T1, mPanx1; experiment: whole-cell patch clamp, CHO cells transfected with mPanx1, dose-response

T1 sequence (Q9JIP4 whole entry): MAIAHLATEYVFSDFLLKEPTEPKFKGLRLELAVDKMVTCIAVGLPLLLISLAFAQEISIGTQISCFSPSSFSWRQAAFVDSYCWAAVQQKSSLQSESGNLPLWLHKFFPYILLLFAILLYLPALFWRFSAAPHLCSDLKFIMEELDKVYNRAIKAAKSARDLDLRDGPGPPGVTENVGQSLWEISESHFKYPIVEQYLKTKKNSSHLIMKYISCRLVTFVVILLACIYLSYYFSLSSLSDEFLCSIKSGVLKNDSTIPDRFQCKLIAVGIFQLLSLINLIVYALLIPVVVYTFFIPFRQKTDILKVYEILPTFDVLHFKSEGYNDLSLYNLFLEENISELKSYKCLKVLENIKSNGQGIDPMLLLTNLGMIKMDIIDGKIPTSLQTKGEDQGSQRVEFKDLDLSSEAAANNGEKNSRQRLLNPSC

| inhibition at 50 µM [2] | Compound | further results |
| --- | --- | --- |
| – | O=C(O)c1ccc(CN(Cc2ccc(C(=O)O)cc2)S(=O)(=O)c2ccc3c(c2)c(=O)c(C(=O)O)cn3Cc2ccc(C(=O)O)cc2)cc1 [compound 7, 4,4′-{[((3-carboxy-1-(4-carboxybenzyl)-4-oxo-1,4-dihydroquinolin-6-yl)sulfonyl)azanediyl]bis(methylene)} dibenzoic acid] | inhibition at 50 µM [1]: 79.7 ± 7.2% |
| – | CCCN(CCC)S(=O)(=O)c1ccc2c(c1)c(=O)c(C(=O)O)cn2Cc1ccc(C(=O)O)cc1 [12e, 1-(4-Carboxybenzyl)-6-(N,N-dipropylsulfamoyl)-4-oxo-1,4-dihydroquinoline-3-carboxylic acid] | inhibition at 50 µM [1]: 84.8 ± 4.4% |
| 49.5 ± 6% | CCN(CC)S(=O)(=O)c1ccc2c(c1)c(=O)c(C(=O)O)cn2Cc1ccc(S(N)(=O)=O)cc1 [12c, 6-(N,N-Diethylsulfamoyl)-4-oxo-1-(4-sulfamoylbenzyl)-1,4-dihydroquinoline-3-carboxylic acid] | – |
| 57.2 ± 8.5% | CCCN(CCC)S(=O)(=O)c1ccc2c(c1)c(=O)c(C(=O)O)cn2CCc1ccccc1 [12g, 6-(N,N-Dipropylsulfamoyl)-4-oxo-1-phenethyl-1,4-dihydroquinoline-3-carboxylic acid] | – |
| – | CCCN(CCC)S(=O)(=O)c1ccc2c(c1)c(=O)c(C(=O)O)cn2Cc1ccc(S(N)(=O)=O)cc1 [12f, 6-(N,N-Dipropylsulfamoyl)-4-oxo-1-(4-sulfamoylbenzyl)-1,4-dihydroquinoline-3-carboxylic acid] | IC50 [3]: 2700 nM |
| 73.2 ± 11.9% | CCN(CC)S(=O)(=O)c1ccc2c(c1)c(=O)c(C(=O)O)cn2Cc1ccc(C(=O)O)cc1 [12b, 1-(4-Carboxybenzyl)-6-(N,N-diethylsulfamoyl)-4-oxo-1,4-dihydroquinoline-3-carboxylic acid] | – |
| 48.8 ± 5.9% | NS(=O)(=O)c1ccc2c(c1)c(=O)c(C(=O)O)cn2Cc1ccc(C(=O)O)cc1 [5b, 1-(4-Carboxybenzyl)-4-oxo-6-sulfamoyl-1,4-dihydroquinoline-3-carboxylic acid] | – |
| 54.6 ± 6% | CCN(CC)S(=O)(=O)c1ccc2c(c1)c(=O)c(C(=O)O)cn2Cc1ccccc1 [12a, 1-Benzyl-6-(N,N-diethylsulfamoyl)-4-oxo-1,4-dihydroquinoline-3-carboxylic acid] | – |
